What was measured:
[1] = tested on: P. aeruginosa PAO1 swarming motility; assay: Swarming motility analysis; type: cell-based, Pseudomonas aeruginosa; conditions: 40 μM, 81.25 μM and 162.5 μM, swarming agar plates
Procedure: 3.2.6. Swarming Motility Analysis
After being inoculated into LB medium, P. aeruginosa PAO1 was cultivated at 37 °C and 150 rpm until OD600 = 1.0. Then, 1 μL of P. aeruginosa PAO1 bacterial medium was inoculated into the center of swarming solid medium (0.8% nutrient broth (BD), 0.5% glucose, 0.3% agar (BD)) and cultured at 30 °C for 16 h. Then, the colonies of the swarming plate were picked and added to the center of the cooled swarming solid medium (0.8% nutrient broth (BD), 0.5% glucose, 0.5% agar (BD)), which had been supplemented with compounds and cultured at 30 °C for 24 h.

[2] = tested on: P. aeruginosa PAO1 biofilms; assay: Biofilm quantification, crystal violet assay; type: cell-based, Pseudomonas aeruginosa; conditions: Pseudomonas aeruginosa, PAO1
Procedure: 3.2.3. Biofilm Quantification Assays
The crystal violet assay was used to quantitatively analyze the biofilm, as previously described. P. aeruginosa PAO1 log phase was diluted 100 times with fresh LB medium and incubated for 3.5 h at 37 °C and 150 rpm. After that, the P. aeruginosa PAO1 bacterial culture was added to the 96-well plate. P. aeruginosa PAO1 bacterial culture in 90 μL was added to the experimental group, and 10 μL of the test compound at a final concentration of 325 μM, 162.5 μM, 81.25 μM, 40 μM, 20 μM, and 10 μM. Each well received 100 μL of bacterial culture for the control group and 100 μL of fresh LB medium for the blank group. After 20 h of incubation at 37 °C, the bacterial culture was removed from the 96-well plate, and it was dried after three PBS washes. Each well received […] of 0.1% crystal violet (CV) for a 15 min staining period. Each well was washed three times with PBS after the CV was removed. Lastly, each well received 150 μL of 33% glacial acetic acid, and a Biotek multi-function microplate reader was used to measure the absorbance value at 595 nm. The biofilm inhibition rate was calculated as follows = (OD595 blank − OD595 sample)/OD595 blank × 100%.

C. violaceum CV026 QS = assay: Half-maximal inhibitory concentration against C. violaceum CV026 QS (suppression of violacein production); type: cell-based; conditions: Chromobacterium violaceum; C6-HSL-induced violacein production, 12 h; mean ± SD of three independent tests; read-out: IC50, anti-CV026 QS activity
From the text: In the exploration of the QS inhibitions, C. violaceum CV026, a mini-T5 mutant of C. violaceum ATCC31532, is frequently employed as a biosensor strain. Because C. violaceum CV026 lacks the CviI gene, which directs the synthesis of AHLs, it is unable to manufacture violacein on its own. The violacein reaction can be induced in C. violaceum CV026 by adding exogenous C6-HSL [27]. As a result, the violacein reaction in C. violaceum CV026 can be used to assess the compounds’ suppression of QS, as used in this investigation.
3.2.2. The Half-Maximal Inhibitory Concentration (IC50) of Compounds against C. violaceum CV026 QS [36]
Subsequently, the log phase of C. violaceum CV026 was placed in a 12-well plate (2 mL/well) after being diluted 10-fold with fresh LB medium. The experimental group received 15 μL of the diluted inducer C6-HSL (0.125 mM), and 8 μL of each dilution gradient compound was added to each well, while the positive control group received 8 μL of C10-HSL, and the blank control group received 8 μL of LB medium. The plates were incubated at 30 °C and 130 rpm for 12 h. After centrifuging 1 mL of the culture for 10 min at 11,255 g, the supernatant was discarded. After dissolving the violacein with 500 μL of DMSO, the mixture was centrifuged once more at 11,255 g for 10 min. In order to measure the absorbance at 585 nm, 200 μL of the upper pigment was added to a 96-well plate. The IC50 was calculated using GraphPad Prism 5 according to the formula (absorbance at 585 nm of the test concentration/the absorbance of the control at 585 nm × 100%).

RAW 264.7 cells = assay: Cytotoxicity test, CCK8; type: cell-based, mouse; conditions: 162.50, 81.25 and 40.00 μM, 12 h
Procedure: The cell line used in this study was mouse mononuclear macrophage leukemia cell RAW 264.7. The cells were cultured in DMEM complete medium (basal medium containing 10% fetal bovine serum, 100 U/mL penicillin, and […] streptomycin) at 37 °C in a 5% CO2 incubator. When the cells covered 80% of the bottom of the plate, they were passaged more than three times.
Adherent RAW 264.7 cells were digested to detach the cells. Digestion was stopped via the addition of PBS and centrifuging at 1000 rpm for 5 min. The supernatant was discarded, and the cells were resuspended in 1 mL of medium for cell counting. Based on the counting results, the cell suspension was diluted. Then, 100 μL of the diluted cell suspension was added to a 96-well plate, with approximately 1 × 10^4 cells per well. The cells were then placed in the incubator to allow for adherence.
One well without cells received 100 μL of complete medium as a blank control, and one well with cells received 100 μL of complete medium as a negative control. […]
After incubation, the medium was removed, and 100 μL of 10% CCK8 solution was added to each well. The absorbance at 450 nm (OD450) was measured at 0.5 h, 1 h, and 2 h until OD450 = 1.
Cell viability was calculated using the following formula: cell activity = (OD450 compound − OD450 blank)/(OD450 negative control − OD450 blank) x 100%

P. aeruginosa PAO1 = assay: Growth activity of PAO1 (OD600 growth curve); type: cell-based, Pseudomonas aeruginosa; conditions: 162.50, 81.25 and 40.00 μM, OD600 over 24 h
Procedure: 3.2.4. The Growth of the Compound of PAO1 QS Activity Analysis
P. aeruginosa PAO1 in log phase was diluted to OD600 = 0.05 in fresh LB medium. Then, 98 μL of diluted bacterial solution and 2 μL of Y-31 solution were added to the 96-well plate. The final concentration of Y-31 in each well was 162.50 μM, 81.25 μM, and 40.00 μM, respectively. The pores without the compound Y-31 were used as blank controls. The cells were incubated in an incubator at 37 °C for 24 h, and OD600 was measured at 0 h, 2 h, 4 h, 6 h, 8 h, 10 h, 12 h, and 24 h, respectively.

For O=C(CCCOc1ccc(I)cc1)NN1CCCOC1=O [Y-31], the “Swarming motility compared to the control group” value [1] was “significantly reduced swarming motility”, the inhibition at 40 µM ([2]; 40 μM, read-out: P. aeruginosa PAO1 biofilm inhibition rate) was 40.4% and the inhibition at 20.3125 µM ([2]; concentration 20.3125 (unit not given in Table S1; μM in method), 20 h, read-out: Inhibition ratio of biofilm) was 21.1%. It also gave an inhibition at 40.625 µM ([2]; concentration 40.625 (unit not given in Table S1; μM in method), 20 h, read-out: Inhibition ratio of biofilm) of 40.4%, an inhibition at 81.25 µM ([2]; concentration 81.25 (unit not given in Table S1; μM in method), 20 h, read-out: Inhibition ratio of biofilm) of 39.5% and an inhibition at 162.5 µM ([2]; concentration 162.5 (unit not given in Table S1; μM in method), 20 h, read-out: Inhibition ratio of biofilm) of 42.1%. The inhibition at 325 µM ([2]; concentration 325 (unit not given in Table S1; μM in method), 20 h, read-out: Inhibition ratio of biofilm) was 41%, the IC50 (C. violaceum CV026 QS) was 91.5 ± 3.35 µM and the “Cytotoxicity towards RAW 264.7 cells (cell viability)” value (RAW 264.7 cells) was “did not exhibit significant cytotoxicity”. The “Inhibition of the growth activity of PAO1” value (P. aeruginosa PAO1) was “no significant inhibition”.

— paper PMC11123961, “Design, Synthesis, and Biological Evaluation of the Quorum-Sensing Inhibitors of Pseudomonas aeruginosa PAO1” (Molecules, 2024)
